Earlier results as cited in patent US9072714B2, “Fatty acids for use as a medicament” (Lipid Pharmaceuticals ehf., priority 2008, dated 2015).

Settings: laxative, by class and site of action

Question: With `CCCCC(CC)COC(=O)CC(C(=O)OCC(CC)CCCC)S(=O)(=O)O` (centres unmarked) [Docusate] as the molecule, how does the Onset of action read?
Answer: The Onset of action was 12 to 72 h.

Question: With `O=C1OC(c2ccc(O)cc2)(c2ccc(O)cc2)c2ccccc21` [Phenolphthalein] as the molecule, how does the Onset of action read?
Answer: Its Onset of action is 6 to 8 h.
